Article PMC11901911, “Diverse Structures of Tea Polyphenols from Rougui Wuyi Rock Tea and Their Potential as Inhibitor of 3C-like Protease” (Molecules, 2025)
Where two headings read alike, the source gives them in different places.

What was measured:
SARS-CoV-2 3CLpro [1] = molecular target: T1, SARS-CoV-2 3CLpro (Severe acute respiratory syndrome coronavirus 2, UniProt P0DTD1); test: biochemical; details: for inhibition at 100 µM: compound concentration 100 μM; for inhibition at 100 µM / inhibition at 10 µM: read-out: Inhibition rate (%) against 3CLpro; for IC50: FRET assay, serial dilution, read-out: IC50 against SARS-CoV-2 3CLpro; for inhibition at 10 µM: compound concentration 10 μM
T1 construct: The kit contains assay buffer (125 mL, blank control), 2019-nCoV-2 3CLpro (500 μL), substrate (1 mL); purchased Beyotime Biotechnology (Shanghai, China) P0312M

SARS-CoV-2 3CLpro [2] = molecular target: T1, SARS-CoV-2 3CLpro; set-up: method as in PMID 32963564; details: in vitro; read-out: IC50 on SARS-CoV-2 3CLpro protein activity; cited from earlier work

Structure (SMILES)	inhibition at 100 µM (SARS-CoV-2 3CLpro [1]) [%]	IC50 (SARS-CoV-2 3CLpro [1]) [µM]	inhibition at 10 µM (SARS-CoV-2 3CLpro [1]) [%]	IC50 (SARS-CoV-2 3CLpro [2]) [µM]
Oc1cc(O)c2c(c1)O[C@H](c1ccc(O)c(O)c1)[C@H](O)C2 [Compound 1, (−)-epicatechin]	> 50			
Oc1cc(O)c2c(c1)O[C@H](c1cc(O)c(O)c(O)c1)[C@H](O)C2 [Compound 4, (−)-epigallocatechin]		12 ± 1.9	> 50	
O=C(O[C@@H]1Cc2c(O)cc(O)cc2O[C@@H]1c1cc(O)c(O)c(O)c1)c1cc(O)c(O)c(O)c1 [Compound 5, (−)-epigallocatechin-3-O-gallate]			> 50	
COc1cc(C(=O)O[C@@H]2Cc3c(O)cc(O)cc3O[C@@H]2c2cc(O)c(O)c(O)c2)cc(O)c1O [Compound 6, (−)-epigallocatechin-3-(3′-O-methyl)-gallate]		9.8 ± 0.4	> 50	
O=C(O[C@@H]1Cc2c(O)cc(O)cc2O[C@@H]1c1ccc(O)cc1)c1cc(O)c(O)c(O)c1 [Compound 7, (−)-epiafzelechin-3-O-gallate]	> 50			
O=C(O[C@H]1Cc2c(O)cc(O)cc2O[C@@H]1c1cc(O)c(O)c(O)c1)c1cc(O)c(O)c(O)c1 [Compound 9, (−)-gallocatechin-3-O-gallate]			> 50	
CCN1C(=O)CC[C@@H]1c1c(O)cc2c(c1O)C[C@@H](O)[C@@H](c1cc(O)c(O)c(O)c1)O2 [Compound 11, 6-(5″R)-N-ethyl-2-pyrrolidinone-epigallocatechin]	> 50	22.4 ± 5.8		
CCN1C(=O)CC[C@H]1c1c(O)cc2c(c1O)C[C@@H](O)[C@@H](c1cc(O)c(O)c(O)c1)O2 [Compound 12, 6-(5″S)-N-ethyl-2-pyrrolidinone-epigallocatechin]	> 50	26.8 ± 0.9		
CCN1C(=O)CC[C@H]1c1c(O)cc(O)c2c1O[C@H](c1cc(O)c(O)c(O)c1)[C@H](O)C2 [Compound 14, puerin V]	> 50	14.9 ± 1.4		
CCN1C(=O)CC[C@@H]1c1c(O)cc(O)c2c1O[C@H](c1cc(O)c(O)c(O)c1)[C@H](O)C2 [Compound 15, puerin VI]	> 50	14.5 ± 1.1		
COc1cc(C(=O)O[C@@H]2Cc3c(O)cc(O)cc3O[C@@H]2c2cc(O)c(O)c(O)c2-c2c([C@H]3Oc4cc(O)cc(O)c4C[C@H]3O)cc(O)c(O)c2O)cc(O)c1O [Compound 20, Epigallocatechin-(2′→2′)-epigallocatechin-3-(3″-O-methyl)-gallate]	> 50	42.1		
O=C(O[C@@H]1Cc2c(O)cc(O)cc2O[C@@H]1c1cc(O)c(O)c(O)c1-c1c([C@H]2Oc3cc(O)cc(O)c3C[C@H]2OC(=O)c2cc(O)c(O)c(O)c2)cc(O)c(O)c1O)c1cc(O)c(O)c(O)c1 [Compound 21, theasinensin A]	> 50			
C[C@@H]1O[C@@H](OC[C@H]2O[C@@H](Oc3c(-c4ccc(O)cc4)oc4cc(O)cc(O)c4c3=O)[C@H](OC(=O)/C=C\c3ccc(O)cc3)[C@@H](O)[C@H]2O)[C@H](O)[C@H](O[C@@H]2O[C@H](CO)[C@@H](O)[C@H](O)[C@H]2O)[C@H]1O [Compound 32, Kaempferol-3-O-[2″-O-(Z)-p-coumaroyl] [β-D-glucopyranosyl-(1→3)-O-α-L-rhamnopyranosyl-(1→6)]-β-D-galactopyranoside]	> 50	61.1		
O=c1c(O)cc([C@H]2Oc3cc(O)cc(O)c3C[C@H]2O)cc2c([C@H]3Oc4cc(O)cc(O)c4C[C@H]3O)cc(O)c(O)c12 [theaflavin]				15
